Numbers after ± are expanded uncertainties.
Assay: Molar enthalpy of transition or fusion
Settings: Adiabatic calorimetry

## O=P([O-])([O-])[O-].[Cs+].[Mn+2] [cesium manganese(II) phosphate]
Crystal 2
  Molar enthalpy of transition or fusion: 0.038 ± 0.000669 kcal/mol
Crystal 3
  Molar enthalpy of transition or fusion: 0.00306 ± 9.56e-05 kcal/mol

— the NIST ThermoML archive (doi:10.1016/j.jct.2014.06.012)
